Results reported in BigSolDB 2.1.

COc1cc(C=O)ccc1O
solubility (mole fraction)
Settings	293.15 K	298.15 K	303.15 K	308.15 K	313.15 K	318.15 K	323.15 K
in ethanol	0.0713	0.0779	0.0841	0.0926	0.105	0.118	0.141
in water	0.00116	0.00141	0.00179	0.00202	0.00234	0.00267	0.00298
